# In PMC7918775, “Quality by Design Applied Development of Immediate-Release Rabeprazole Sodium Dry-Coated Tablet” (Pharmaceutics, 2021):
# “Also recorded” adds a separate entry of the source. Like-named read-outs stand apart in the source and are kept apart here.
# How the values were obtained:
# [1] = Procedure: The solution was then stirred at 37 ± 2 °C for 1 h and filtered by polyvinylidene fluoride (PVDF) membrane filter. Next, 50 mL of the filtrate was obtained and titrated with hydrochloric acid with 0.1 M sodium hydroxide solution (pH measurement method) with an endpoint of pH 3.5.
# [2] = cited from earlier work
# [3] = cited from earlier work; remark: listed apart in the source
# [4] = API-API compatibility study (impurities by HPLC); type: physicochemical
# Procedure: (§1) The latter reflects the proportions of APIs in each commercialized tablet. The prepared samples were stored in a stability chamber for 4 weeks at room temperature of 25 ± 2 °C/ 60 ± 5% RH and under acceleration conditions of 40 ± 2 °C/ 75 ± 5% RH, respectively. […] If none were detected, an additional impurity test was performed to confirm compatibility.
# [5] = Stability of APIs in solution at various pH (content, appearance); type: physicochemical
# physchem = settings: water, thermodynamic from solid
# Procedure: The solubility of each component in deionized water, solvents (ethanol, methanol), citric acid/sodium citrate buffer, and pH buffer was evaluated.
# Each vial contained 10 mg rabeprazole sodium, and 200 µL of each solvent was slowly added. […] The solutions were filtered and then diluted 2000× to measure the quantity of rabeprazole sodium dissolved in the solution. Equilibrium or final rabeprazole sodium solubility was calculated from the HPLC peak. Peak area of sample solution × 100 × 100/Average of standard solution peak area ×1000
# [6] = Rabeprazole sodium/excipient compatibility study (appearance, impurities by HPLC); type: physicochemical; settings: 1:1 (w/w) mixtures, HPLC impurity test; threshold 3.5%
# Procedure: as §1
structure (smiles),measurement,setting,value
O=C([O-])O.[Na+] [Sodium bicarbonate],Acid-neutralizing capacity (0.1 M HCl consumption),[1]; 200 mg sodium bicarbonate,38 mL
same,Acid-neutralizing capacity (0.1 M HCl consumption),[1]; 300 mg sodium bicarbonate,42 mL
same,Acid-neutralizing capacity (0.1 M HCl consumption),[1]; 400 mg sodium bicarbonate,45 mL
same,Acid-neutralizing capacity (0.1 M HCl consumption),[1]; 500 mg sodium bicarbonate,49 mL
same,Acid-neutralizing capacity (0.1 M HCl consumption),[1]; 600 mg sodium bicarbonate,57 mL
same,Acid-neutralizing capacity (0.1 M HCl consumption),[1]; 700 mg sodium bicarbonate,68 mL
same,Acid-neutralizing capacity (0.1 M HCl consumption),[1]; 800 mg sodium bicarbonate,79 mL
same,Acid-neutralizing capacity (0.1 M HCl consumption),[1]; 900 mg sodium bicarbonate,84 mL
same,Acid-neutralizing capacity (0.1 M HCl consumption),[1]; 1000 mg sodium bicarbonate,89 mL
same,Duration,[2]; Intravenous (IV),0.13 to 0.167 h
same,Onset time of action,[2]; Intravenous (IV),fast
same,Excretion: urine,[2]; in vivo,< 1%
same,Duration,[2]; oral,1 to 3 h
same,Onset time of action,[2]; oral,15 min
same,PKa (carbonic acid),[3]; carbonic acid,6.351
same,PKa,[3],10.329
COCCCOc1ccnc(C[S+]([O-])c2nc3ccccc3[nH]2)c1C (stereo not drawn) [Rabeprazole sodium],Time to reach maximum plasma concentration,"[2]; Adolescents, Tablets",3.3 to 4.1 h
same,Time to reach maximum plasma concentration,"[2]; Adults, Capsule",1 to 6.5 h
same,Time to reach maximum plasma concentration,"[2]; Adults, Tablets",2 to 5 h
same,Bioavailability,[2]; Tablets,~52%
same,Half-life (dose dependent),[2]; adolescents,33 to 60 min
same,Half-life (dose dependent),[2]; adults,60 to 120 min
same,Action onset time,[2]; in vivo,≤ 1 h
same,Duration,[2]; in vivo,24 h
same,Excretion: urine,[2]; in vivo,90%
same,Metabolism,[2]; in vivo,metabolized by CYP3A and 2C19 to inactive metabolites in the liver
same,Protein binding rate,[2]; in vivo,96.3%
same,Delay of absorption by food,"[2]; oral, with food",up to 4 h or more
same,Absorption: Oral,[2]; oral,well absorbed within 1 h
same,Half-life increase,[2]; patients with mild to moderate hepatic impairment,2–3 times
same,"Impurities, 4 Weeks",[4]; Accelerated Condition 40 °C/75% RH,1.31%
same,"Impurities, 4 Weeks",[4]; Room Temperature 25 °C/60% RH,0.07%
same,"Impurities, Initial",[4]; initial,0.06%
same,solubility,[3]; Water,10 mg/mL (Water)
same,Decomposition half-life,[3]; aqueous solutions with pH < 3.0,< 10 min
same,pKa (Strongest Acidic),[3],9.35
same,pKa (Strongest Basic),[3],4.24
same,Rabeprazole sodium content measured according to pH,[5]; pH 1.2 to 6.0,30 to 60%
same,Time stable in solution,[5]; pH 8.0,~ 26 h
same,Appearance in buffers,[5]; range of pH 1.2–12.0,changed in buffers with pH < 7.0; also recorded: transparent in buffers with pH > 8.0
same,solubility,physchem,> 110 mg/mL
same,Concentration of decomposition products,[6],no decomposition products were formed
